Patent US20090118220A1, “SUBSTITUTED ADENINES AND THE USES THEREOF” (AstraZeneca AB, priority 2006, published 2009)
Values after ≈ are worked out from the molar mass of the structure shown.

Key:
DNA ligase = DNA ligase FRET inhibition assay, isozyme not specified; type: biochemical
Procedure: (§1) Compounds were tested for inhibition of DNA ligase using a Fluorescence Resonance Energy Transfer (FRET) detection assay as previously described (Chen et al. 2002. Analytical Biochemistry 309: 232-240; Benson et al. 2004. Analytical Biochemistry 324:298-300). Assays were performed in 384-well polystyrene flat-bottom black plates in 30 μl reactions containing 3 μl compound dissolved in dimethylsulfoxide, 20 μl 1.5× Enzyme Working Solution (25% glycerol, 45 mM potassium chloride, 45 mM ammonium sulfate, 15 mM dithiothreitol, 1.5 mM ethylenediaminetetraacetic acid (EDTA), 0.003% Brij 35, 75 mM MOPS pH 7.5, 150 nM bovine serum albumin, 1.5 μM NAD^+, 60 nM DNA substrate, 0.375 nM enzyme in water) and 7 μl 70 mM magnesium chlorine solution (96 mM magnesium chloride, 20% glycerol in water) to initiate the reaction. […] Plates were read in a Tecan Ultra plate reader at two separate wavelengths—Read 1: excitation 485, emission 535, Read 2: excitation 485, emission 595. […] Compound potency was based on IC50 measurements determined from reactions performed in the presence of ten different compound concentrations.
Solubility is determined under assay conditions using a nephelometer to detect a change in turbidity as the concentration of compound increases. The limit of solubility is defined as the maximum concentration before a detectable increase in turbidity is measured.

S. pneumoniae LigA = S. pneumoniae LigA (Streptococcus pneumoniae serotype 4, UniProt Q97QT2); experiment: DNA ligase FRET inhibition assay; type: biochemical; conditions: FRET detection, ten compound concentrations; read-out: IC50 (μM) against S. pneumoniae LigA
Procedure: as §1, with “reaction. The DNA substrate is similar to that described in Benson et al. (2004. Analytical Biochemistry 324:298-300).” for “reaction.”

S. pneumoniae = experiment: Bacterial susceptibility testing, microbroth dilution (NCCLS), MIC; type: cell-based; conditions: Streptococcus pneumoniae; lowest concentration able to reduce growth by 80% or more; read-out: MIC (μg/ml) against S. pneumoniae
Procedure: Compounds were tested for antimicrobial activity by susceptibility testing using microbroth dilution methods recommended by NCCLS. Compounds were dissolved in dimethylsulfoxide and tested in 10 doubling dilutions in the susceptibility assays such that the final dimethylsulfoxide concentration in the assay was 2% (v/v). The organisms used in the assay were grown overnight on appropriate agar media and then suspended in the NCCLS-recommended liquid susceptibility-testing media. The turbidity of each suspension was adjusted to be equal to a 0.5 McFarland standard, a further 1-in-10 dilution was made into the same liquid medium to prepare the final organism suspension, and 100 μL of this suspension was added to each well of a microtiter plate containing compound dissolved in 2 μL of dimethylsulfoxide. Plates were incubated under appropriate conditions of atmosphere and temperature and for times according to NCCLS standard methods prior to being read. The Minimum Inhibitory Concentration (MIC) was determined as the lowest drug concentration able to reduce growth by 80% or more.

Chain of S. pneumoniae LigA (Q97QT2 whole entry): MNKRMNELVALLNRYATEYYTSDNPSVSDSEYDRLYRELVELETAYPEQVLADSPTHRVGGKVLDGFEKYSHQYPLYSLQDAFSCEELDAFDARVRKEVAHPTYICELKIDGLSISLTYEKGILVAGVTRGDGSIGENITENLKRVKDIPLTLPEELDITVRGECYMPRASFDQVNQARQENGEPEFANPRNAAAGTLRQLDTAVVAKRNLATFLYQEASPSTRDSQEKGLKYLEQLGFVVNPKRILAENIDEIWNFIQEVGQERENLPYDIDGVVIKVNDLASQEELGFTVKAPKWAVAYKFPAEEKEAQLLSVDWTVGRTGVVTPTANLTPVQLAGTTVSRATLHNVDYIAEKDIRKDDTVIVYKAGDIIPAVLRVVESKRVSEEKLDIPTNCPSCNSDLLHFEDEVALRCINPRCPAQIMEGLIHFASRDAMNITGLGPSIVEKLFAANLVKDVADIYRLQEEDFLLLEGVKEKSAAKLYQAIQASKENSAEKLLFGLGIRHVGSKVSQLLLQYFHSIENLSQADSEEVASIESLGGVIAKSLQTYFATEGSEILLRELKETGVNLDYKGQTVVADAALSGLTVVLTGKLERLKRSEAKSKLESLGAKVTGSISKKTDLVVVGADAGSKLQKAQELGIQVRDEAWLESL

SMILES | inhibition of the ligation reaction at the limit of solubility in the assay medium (DNA ligase) | IC50 (S. pneumoniae LigA) [µM] | further results
Nc1nc(OC2CCCC2)nc2c1ncn2C1OCCC1(Cl)Cl (centres unmarked) [2-(cyclopentyloxy)-9-(3,3-dichlorotetrahydrofuran-2-yl)-9H-purin-6-amine] | approximately 12% |  | 
C=C[C@]1(O)[C@H](O)[C@@H](C)O[C@H]1n1cnc2c(N)nc(OC3CCCC3)nc21 [(2R,3S,4R,5R)-2-(6-amino-2-(cyclopentyloxy)-9H-purin-9-yl)-5-methyl-3-vinyltetrahydrofuran-3,4-diol] | approximately 17% |  | 
C[C@H]1O[C@@H](n2c(NCc3ccccc3)nc3c(N)nc(OC4CCCC4)nc32)[C@H](O)[C@@H]1O [Example 2] |  | 10 | 
Nc1nc(OC2CCCC2)nc2c1ncn2[C@@H]1OC(CO)(CO)[C@@H](O)[C@H]1O [Example 12, (3S,4R,5R)-5-[6-amino-2-(cyclopentyloxy)-9H-purin-9-yl]-2,2-bis(hydroxymethyl)tetrahydrofuran-3,4-diol] |  |  | MIC (S. pneumoniae): 16 µg/mL (≈ 42 µM)
Nc1nc(OC2CCCC2)nc2c1ncn2[C@@H]1OC(CF)(CF)[C@@H](O)[C@H]1O [Example 13, (3S,4R,5R)-5-[6-amino-2-(cyclopentyloxy)-9H-purin-9-yl]-2,2-bis(fluoromethyl)tetrahydrofuran-3,4-diol] |  | 1 | 
